Experimental data reported in patent publication US11180494B2, “Substituted amino acids as integrin inhibitors” (Pliant Therapeutics, Inc., priority 2018, dated 2021).

Biological target: human integrin αvβ6 (Homo sapiens (Human), UniProt P06756+P18564)
Assay: Proximity-based integrin receptor binding assay (ALPHASCREEN) for inhibitor potency
Conditions: inhibition of binding of TGF-b1 LAP to human integrin αvβ6, values given in ranges
Outline: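 AlphaScreen: integrin, compound, TGF-b1 LAP, biotinylated anti-LAP antibody and acceptor beads incubated 2 hours, then streptavidin donor beads 30 minutes, at room temperature in 50 mM Tris-HCl pH 7.5, 0.1% BSA, 1 mM CaCl2 and MgCl2. Excitation 680 nm, emission 520-620 nm; IC50 by four-parameter logistic fit.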

human integrin αvβ6, sequence (P06756 31-992): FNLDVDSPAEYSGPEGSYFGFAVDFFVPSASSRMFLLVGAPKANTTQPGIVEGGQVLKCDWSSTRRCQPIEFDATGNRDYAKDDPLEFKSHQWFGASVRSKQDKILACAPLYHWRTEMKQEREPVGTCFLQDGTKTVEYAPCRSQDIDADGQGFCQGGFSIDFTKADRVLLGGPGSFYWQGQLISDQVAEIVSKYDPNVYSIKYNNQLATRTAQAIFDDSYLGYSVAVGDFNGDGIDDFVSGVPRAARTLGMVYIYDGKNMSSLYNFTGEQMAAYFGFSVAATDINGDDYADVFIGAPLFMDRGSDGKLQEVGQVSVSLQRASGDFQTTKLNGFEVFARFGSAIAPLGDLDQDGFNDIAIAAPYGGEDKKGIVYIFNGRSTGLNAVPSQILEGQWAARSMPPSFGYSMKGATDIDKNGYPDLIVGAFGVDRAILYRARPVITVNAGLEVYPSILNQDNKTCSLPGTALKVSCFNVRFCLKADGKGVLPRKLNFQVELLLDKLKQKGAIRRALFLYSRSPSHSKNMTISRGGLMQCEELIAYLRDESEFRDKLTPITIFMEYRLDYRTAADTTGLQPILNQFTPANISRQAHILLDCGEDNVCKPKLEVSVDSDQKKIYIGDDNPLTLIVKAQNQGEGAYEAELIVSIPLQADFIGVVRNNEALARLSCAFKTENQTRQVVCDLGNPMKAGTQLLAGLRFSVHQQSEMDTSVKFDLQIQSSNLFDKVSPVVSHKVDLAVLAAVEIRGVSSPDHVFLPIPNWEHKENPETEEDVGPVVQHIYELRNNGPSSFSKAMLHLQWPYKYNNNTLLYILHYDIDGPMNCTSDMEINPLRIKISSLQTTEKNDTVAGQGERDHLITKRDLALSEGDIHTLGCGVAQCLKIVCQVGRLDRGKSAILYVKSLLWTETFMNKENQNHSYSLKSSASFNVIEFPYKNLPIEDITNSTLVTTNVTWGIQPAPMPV
human integrin αvβ6, sequence (P18564 22-707): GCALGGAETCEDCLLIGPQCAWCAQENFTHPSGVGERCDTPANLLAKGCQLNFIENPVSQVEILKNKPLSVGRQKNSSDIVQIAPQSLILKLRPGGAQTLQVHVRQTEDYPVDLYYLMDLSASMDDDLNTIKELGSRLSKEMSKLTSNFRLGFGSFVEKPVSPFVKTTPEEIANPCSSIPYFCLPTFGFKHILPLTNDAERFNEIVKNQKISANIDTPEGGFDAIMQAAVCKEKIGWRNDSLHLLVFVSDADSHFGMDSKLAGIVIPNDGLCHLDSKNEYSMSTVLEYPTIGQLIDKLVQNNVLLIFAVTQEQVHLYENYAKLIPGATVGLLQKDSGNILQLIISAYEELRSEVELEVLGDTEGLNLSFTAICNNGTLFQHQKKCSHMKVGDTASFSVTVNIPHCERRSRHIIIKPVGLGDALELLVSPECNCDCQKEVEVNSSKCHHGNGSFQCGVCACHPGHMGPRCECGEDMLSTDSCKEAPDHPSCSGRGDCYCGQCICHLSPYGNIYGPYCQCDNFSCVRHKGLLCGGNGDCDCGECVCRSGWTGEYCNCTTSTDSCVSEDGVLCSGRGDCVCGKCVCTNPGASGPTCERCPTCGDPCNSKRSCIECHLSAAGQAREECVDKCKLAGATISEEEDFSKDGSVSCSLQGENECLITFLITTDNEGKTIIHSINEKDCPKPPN

SMILES	IC50	IC50 (listed as 83*)
Cn1cc(-c2cccc(C(=O)NC(CCO[C@H]3C[C@H](CCc4ccc5c(n4)NCCC5)C3)C(=O)O)c2)cn1 (stereo partly shown) [Compound 72]	< 50 nM	–
Cn1cc(-c2cccc(C(=O)NC(CCOCCCCc3ccc4c(n3)NCCC4)C(=O)O)c2)cn1 (stereo not shown) [Compound 73, N-(3-(1-methyl-1H-pyrazol-4-yl)benzoyl)-O-(4-(5,6,7,8-tetrahydro-1,8-naphthyridin-2-yl)butyl)homoserine]	50 to 250 nM	–
O=C(O)C(CCOCCCCc1ccc2c(n1)NCCC2)NC(=O)[C@@H](O)c1ccccc1 (stereo partly drawn) [Compound 74, N—((S)-2-hydroxy-2-phenylacetyl)-O-(4-(5,6,7,8-tetrahydro-1,8-naphthyridin-2-yl)butyl)homoserine]	> 1000 nM	–
O=C(O)C(CCOCCCCc1ccc2c(n1)NCCC2)NC(=O)[C@@H](O)c1ccccc1 (stereo partly drawn) [Compound 75, N—((S)-2-hydroxy-2-phenylacetyl)-O-(4-(5,6,7,8-tetrahydro-1,8-naphthyridin-2-yl)butyl)homoserine]	250 to 1000 nM	–
O=C(O)[C@H](CCOCCCCc1ccc2c(n1)NCCC2)NC(=O)[C@H](O)c1ccccc1 [Compound 76, N—((R)-2-hydroxy-2-phenylacetyl)-O-(4-(5,6,7,8-tetrahydro-1,8-naphthyridin-2-yl)butyl)homoserine]	250 to 1000 nM	–

Next, values leading:

IC50	IC50 (listed as 83*)	SMILES
> 1000 nM	–	O=C(O)C(CCO[C@H]1C[C@@H](CCc2ccc3c(n2)NCCC3)C1)NC(=O)[C@@H](CO)c1ccccc1 (stereo partly drawn) [Compound 71, N—((R)-3-hydroxy-2-phenylpropanoyl)-O-(cis-3-(2-(5,6,7,8-tetrahydro-1,8-naphthyridin-2-yl)ethyl)cyclobutyl)homoserine]
> 1000 nM	–	O=C(O)C(CCO[C@H]1C[C@H](CCc2ccc3c(n2)NCCC3)C1)NC(=O)[C@@H](O)c1ccccc1 (stereo partly drawn) [Compound 78, N—((S)-2-hydroxy-2-phenylacetyl)-O-(trans-3-(2-(5,6,7,8-tetrahydro-1,8-naphthyridin-2-yl)ethyl)cyclobutyl)homoserine]
50 to 250 nM	–	O=C(O)C(CCO[C@H]1C[C@H](CCc2ccc3c(n2)NCCC3)C1)NC(=O)[C@@H](O)c1ccccc1 (stereo partly drawn) [Compound 79, N—((S)-2-hydroxy-2-phenylacetyl)-O-(trans-3-(2-(5,6,7,8-tetrahydro-1,8-naphthyridin-2-yl)ethyl)cyclobutyl)homoserine]
50 to 250 nM	–	O=C(O)C(CCO[C@H]1C[C@H](CCc2ccc3c(n2)NCCC3)C1)NC(=O)[C@H](O)c1ccccc1 (stereo partly drawn) [Compound 80, N—((R)-2-hydroxy-2-phenylacetyl)-O-(trans-3-(2-(5,6,7,8-tetrahydro-1,8-naphthyridin-2-yl)ethyl)cyclobutyl)homoserine]
> 1000 nM	–	O=C(O)C(CCO[C@H]1C[C@H](CCc2ccc3c(n2)NCCC3)C1)NC(=O)[C@H](O)c1ccccc1 (stereo partly drawn) [Compound 81, N—((R)-2-hydroxy-2-phenylacetyl)-O-(trans-3-(2-(5,6,7,8-tetrahydro-1,8-naphthyridin-2-yl)ethyl)cyclobutyl)homoserine]
250 to 1000 nM	–	O=C(O)C(CCO[C@H]1C[C@H](CCc2ccc3c(n2)NCCC3)C1)NC(=O)C1(c2ccccc2)CC1 (stereo partly drawn) [Compound 82, N-(1-phenylcyclopropane-1-carbonyl)-O-(trans-3-(2-(5,6,7,8-tetrahydro-1,8-naphthyridin-2-yl)ethyl)cyclobutyl)homoserine]
–	> 1000 nM	CC(C)(C(=O)NC(CCO[C@H]1C[C@H](CCc2ccc3c(n2)NCCC3)C1)C(=O)O)c1ccccc1 (stereo partly drawn) [Compound 83, N-(2-methyl-2-phenylpropanoyl)-O-(trans-3-(2-(5,6,7,8-tetrahydro-1,8-naphthyridin-2-yl)ethyl)cyclobutyl)homoserine]
< 50 nM	–	O=C(O)C(CCO[C@H]1C[C@H](CCc2ccc3c(n2)NCCC3)C1)NC(=O)C1(c2ccccc2)CCC1 (stereo partly drawn) [Compound 84, N-(1-phenylcyclobutane-1-carbonyl)-O-(trans-3-(2-(5,6,7,8-tetrahydro-1,8-naphthyridin-2-yl)ethyl)cyclobutyl)homoserine]
